# Where two headings read alike, the source gives them in different places.
# How the values were obtained:
# Assay type in all cases: biochemical
# [1] = molecular target: 320 wild-type protein kinases (Homo sapiens, UniProt Q9UBS0); conditions: kinase S6K-beta, singlicate
# From the text: (§1) Table S4. Profiling of two compounds at two concentrations against 320 wild-type protein kinases; singlicate measurement; Residual activities (% of control).
# [2] = molecular target: T1, 320 wild-type protein kinases (Homo sapiens, UniProt Q96KB5); conditions: PBK, singlicate
# T1 sequence (Q96KB5 1-322): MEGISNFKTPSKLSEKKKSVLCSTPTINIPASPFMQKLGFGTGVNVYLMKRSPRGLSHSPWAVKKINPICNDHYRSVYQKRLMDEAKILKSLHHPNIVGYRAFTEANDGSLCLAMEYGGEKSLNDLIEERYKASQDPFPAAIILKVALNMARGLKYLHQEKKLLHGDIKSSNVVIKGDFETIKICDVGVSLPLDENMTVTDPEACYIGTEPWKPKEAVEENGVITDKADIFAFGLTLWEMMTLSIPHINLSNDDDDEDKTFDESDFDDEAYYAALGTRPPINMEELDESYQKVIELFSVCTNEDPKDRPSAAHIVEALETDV
# From the text: as §1
# [3] = molecular target: T2, 320 wild-type protein kinases (Homo sapiens, UniProt Q9NR20); conditions: singlicate
# T2 sequence (Q9NR20 1-520): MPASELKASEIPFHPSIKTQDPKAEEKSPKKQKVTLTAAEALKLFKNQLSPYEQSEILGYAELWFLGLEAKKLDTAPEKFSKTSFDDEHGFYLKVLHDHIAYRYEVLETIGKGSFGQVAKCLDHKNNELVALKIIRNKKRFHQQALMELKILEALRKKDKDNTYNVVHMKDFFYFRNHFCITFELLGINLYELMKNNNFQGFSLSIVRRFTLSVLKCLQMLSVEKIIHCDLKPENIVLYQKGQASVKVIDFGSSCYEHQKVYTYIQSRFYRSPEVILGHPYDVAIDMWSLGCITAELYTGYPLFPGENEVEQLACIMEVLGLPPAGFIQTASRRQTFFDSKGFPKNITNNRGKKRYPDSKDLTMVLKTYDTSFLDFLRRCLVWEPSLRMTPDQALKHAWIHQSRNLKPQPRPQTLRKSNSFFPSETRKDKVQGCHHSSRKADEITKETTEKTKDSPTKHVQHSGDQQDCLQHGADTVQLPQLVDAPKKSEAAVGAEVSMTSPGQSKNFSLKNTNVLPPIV
# From the text: as §1
# [4] = molecular target: 320 wild-type protein kinases (Homo sapiens, UniProt P28482); conditions: singlicate
# From the text: as §1
# [5] = molecular target: T3, 320 wild-type protein kinases (Homo sapiens, UniProt P51956); conditions: singlicate
# T3 sequence (P51956 1-506): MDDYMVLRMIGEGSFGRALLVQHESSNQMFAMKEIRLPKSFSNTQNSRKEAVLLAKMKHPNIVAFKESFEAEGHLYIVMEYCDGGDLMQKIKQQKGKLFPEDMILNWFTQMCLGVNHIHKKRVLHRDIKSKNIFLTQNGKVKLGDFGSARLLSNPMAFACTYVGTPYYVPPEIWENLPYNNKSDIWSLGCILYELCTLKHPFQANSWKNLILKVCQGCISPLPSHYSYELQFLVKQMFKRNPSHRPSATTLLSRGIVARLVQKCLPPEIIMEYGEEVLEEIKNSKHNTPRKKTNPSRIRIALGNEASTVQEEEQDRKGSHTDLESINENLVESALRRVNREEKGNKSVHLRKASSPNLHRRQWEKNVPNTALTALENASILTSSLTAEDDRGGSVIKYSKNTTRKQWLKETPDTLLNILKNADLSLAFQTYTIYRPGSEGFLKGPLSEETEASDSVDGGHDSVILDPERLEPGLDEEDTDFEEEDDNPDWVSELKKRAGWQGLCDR
# From the text: as §1
# [6] = molecular target: T4, 320 wild-type protein kinases (Homo sapiens, UniProt O00141); conditions: kinase SGK1, singlicate
# T4 sequence (O00141 1-431): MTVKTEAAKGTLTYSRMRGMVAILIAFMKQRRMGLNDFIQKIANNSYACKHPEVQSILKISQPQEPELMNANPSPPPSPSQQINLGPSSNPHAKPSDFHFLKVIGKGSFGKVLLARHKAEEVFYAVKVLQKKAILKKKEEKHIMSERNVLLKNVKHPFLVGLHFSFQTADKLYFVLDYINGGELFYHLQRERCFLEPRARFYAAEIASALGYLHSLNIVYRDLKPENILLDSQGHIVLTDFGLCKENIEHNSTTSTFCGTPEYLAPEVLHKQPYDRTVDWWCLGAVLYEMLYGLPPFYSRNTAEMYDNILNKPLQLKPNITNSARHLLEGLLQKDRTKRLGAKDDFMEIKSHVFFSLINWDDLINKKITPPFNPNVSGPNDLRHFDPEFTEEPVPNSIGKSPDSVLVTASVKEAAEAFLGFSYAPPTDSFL
# From the text: as §1
# [7] = molecular target: 320 wild-type protein kinases (Homo sapiens, UniProt Q02750); conditions: singlicate
# From the text: as §1
# [8] = molecular target: T5, 320 wild-type protein kinases (Homo sapiens, UniProt O43781); conditions: singlicate
# T5 sequence (O43781 1-588): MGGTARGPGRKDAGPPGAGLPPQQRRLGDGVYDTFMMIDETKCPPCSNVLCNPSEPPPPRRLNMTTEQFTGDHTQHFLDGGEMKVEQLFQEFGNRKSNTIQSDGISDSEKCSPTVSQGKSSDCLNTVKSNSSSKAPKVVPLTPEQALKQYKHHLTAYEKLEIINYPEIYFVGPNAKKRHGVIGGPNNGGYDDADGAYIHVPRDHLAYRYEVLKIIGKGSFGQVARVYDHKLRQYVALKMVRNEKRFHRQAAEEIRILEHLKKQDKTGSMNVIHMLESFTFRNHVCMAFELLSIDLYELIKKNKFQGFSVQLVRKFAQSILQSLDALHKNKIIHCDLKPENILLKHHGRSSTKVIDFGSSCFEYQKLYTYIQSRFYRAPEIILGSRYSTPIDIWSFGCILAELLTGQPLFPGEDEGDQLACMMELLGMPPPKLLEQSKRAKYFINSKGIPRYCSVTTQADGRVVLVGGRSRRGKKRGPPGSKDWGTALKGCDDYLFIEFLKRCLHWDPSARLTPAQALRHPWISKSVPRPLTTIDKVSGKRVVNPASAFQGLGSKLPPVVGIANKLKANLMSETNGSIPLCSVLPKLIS
# From the text: as §1
# Sequence of 320 wild-type protein kinases (Homo sapiens, UniProt Q02750) (Q02750 whole entry): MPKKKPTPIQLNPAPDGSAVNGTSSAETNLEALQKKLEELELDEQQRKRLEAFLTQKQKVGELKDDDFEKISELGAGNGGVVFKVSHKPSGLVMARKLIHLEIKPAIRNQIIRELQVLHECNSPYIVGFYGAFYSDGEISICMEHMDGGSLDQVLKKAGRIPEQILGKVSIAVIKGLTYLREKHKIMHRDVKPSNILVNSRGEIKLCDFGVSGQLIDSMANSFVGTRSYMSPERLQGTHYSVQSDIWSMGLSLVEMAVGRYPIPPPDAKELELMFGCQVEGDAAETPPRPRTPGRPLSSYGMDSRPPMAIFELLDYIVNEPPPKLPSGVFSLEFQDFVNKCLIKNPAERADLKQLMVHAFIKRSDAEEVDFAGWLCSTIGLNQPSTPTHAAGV
# Sequence of 320 wild-type protein kinases (Homo sapiens, UniProt Q9UBS0) (Q9UBS0 whole entry): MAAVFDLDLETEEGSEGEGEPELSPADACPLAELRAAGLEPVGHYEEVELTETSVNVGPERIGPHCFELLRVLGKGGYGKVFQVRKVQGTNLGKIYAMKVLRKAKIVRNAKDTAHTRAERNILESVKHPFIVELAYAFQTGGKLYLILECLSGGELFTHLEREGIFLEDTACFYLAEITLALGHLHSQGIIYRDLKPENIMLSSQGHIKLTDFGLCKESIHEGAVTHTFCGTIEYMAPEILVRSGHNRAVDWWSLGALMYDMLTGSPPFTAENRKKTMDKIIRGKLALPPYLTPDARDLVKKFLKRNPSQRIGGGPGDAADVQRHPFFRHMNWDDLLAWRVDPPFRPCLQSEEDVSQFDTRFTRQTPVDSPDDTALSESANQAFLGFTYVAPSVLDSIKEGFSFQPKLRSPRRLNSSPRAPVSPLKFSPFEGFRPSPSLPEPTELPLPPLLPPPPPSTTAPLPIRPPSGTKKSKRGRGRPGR
# Sequence of 320 wild-type protein kinases (Homo sapiens, UniProt P28482) (P28482 whole entry): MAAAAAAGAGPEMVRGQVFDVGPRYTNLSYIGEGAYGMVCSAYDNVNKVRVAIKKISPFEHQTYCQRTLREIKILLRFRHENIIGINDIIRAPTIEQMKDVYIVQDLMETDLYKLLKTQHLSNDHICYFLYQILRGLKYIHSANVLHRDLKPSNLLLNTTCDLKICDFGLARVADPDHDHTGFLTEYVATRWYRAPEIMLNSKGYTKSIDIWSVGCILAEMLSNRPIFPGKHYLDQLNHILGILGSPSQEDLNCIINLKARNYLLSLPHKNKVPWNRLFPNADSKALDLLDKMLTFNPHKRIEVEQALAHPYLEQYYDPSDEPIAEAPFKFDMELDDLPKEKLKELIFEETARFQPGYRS
Compound,"Residual activity, S6K-beta ([1]; assay conc. 1.0E-06 M)","Residual activity, S6K-beta ([1]; assay conc. 1.0E-07 M)",Residual activity ([2]; 1.0E-06 M),Residual activity ([2]; 1.0E-07 M),"Residual activity ([3]; DYRK4, 1.0E-06 M)","Residual activity ([3]; DYRK4, 1.0E-07 M)","Residual activity ([4]; ERK2, 1.0E-06 M)","Residual activity ([4]; ERK2, 1.0E-07 M)","Residual activity ([5]; NEK3, 1.0E-06 M)","Residual activity ([5]; NEK3, 1.0E-07 M)","Residual activity, SGK1 ([6]; assay conc. 1.0E-06 M)","Residual activity, SGK1 ([6]; assay conc. 1.0E-07 M)","Residual activity ([7]; MEK1, 1.0E-06 M)","Residual activity ([7]; MEK1, 1.0E-07 M)","Residual activity ([8]; DYRK3, 1.0E-06 M)","Residual activity ([8]; DYRK3, 1.0E-07 M)"
C#Cc1cc(Nc2ncnc3cc(I)ccc23)ccc1Cl [Compound 41],102 % of control,96 % of control,110 % of control,98 % of control,96 % of control,99 % of control,86 % of control,90 % of control,103 % of control,110 % of control,77 % of control,103 % of control,104 % of control,109 % of control,81 % of control,96 % of control
C#Cc1cc(Nc2ncnc3cc(OC)c(OC)cc23)ccc1Cl [Compound 45],86 % of control,105 % of control,80 % of control,91 % of control,97 % of control,116 % of control,87 % of control,94 % of control,113 % of control,101 % of control,88 % of control,99 % of control,109 % of control,105 % of control,69 % of control,97 % of control

# — PMC9329436, “Optimization of the 4-anilinoquin(az)oline scaffold as epidermal growth factor receptor (EGFR) inhibitors for chordoma utilizing a toxicology profiling assay platform” (Scientific Reports, 2022)
